In patent US9920040B2, “GPR40 agonists for the treatment of type II diabetes” (Janssen Pharmaceutica NV, priority 2015, dated 2018):
pEC50: −log10 of the molar value. Where “and” joins values, the source holds several entries; their conditions need not be identical. Identical values can stand only once.

Molecular target: T1, human GPR40 (Homo sapiens, UniProt O14842)
T1 construct: expressed in transfected cells
Test: GPR40 calcium flux assay, human GPR40
Assay type: cell-based
Conditions: transfected HEK293 cells stably expressing human GPR40; multiple values = repeated testing; read-out: hGPR40 Ca^2+ Assay EC50
Protocol: Compounds were tested in a calcium flux assay using transfected HEK293 cells stably expressing either human GPR40 or rat GPR40. Human GPR40 expressing cells were cultured in DMEM-High Glucose media supplemented with 10% fetal bovine serum, 1×L-Glutamine, 1×Penicillin/Streptomycin and 500 μg/mL G418. Rat GPR40 expressing cells were cultured in DMEM-High Glucose media supplemented with 10% fetal bovine serum and 1 μg/mL puromycin. Cells were plated into poly-D-lysine coated 384-well plates and cultured overnight in a 37° C. humidified tissue culture incubator under 5% CO2/[…] atmosphere. On the day of the experiment, the culture media was replaced with assay buffer (HBSS, 20 mM HEPES, 0.1% BSA) and the cells incubated at 37° C. for 1 h. Calcium-sensitive fluorescent dye (Fluo 8 No-Wash Calcium Dye, ABD Bioquest) was then added and the cells incubated for another 30 min at 37° C. followed by 15 min at room temperature while protected from the light. The cell plate and a plate of diluted compounds of Formula (I) were loaded into a fluorescent plate reader that added compounds onto the cells while measuring the fluorescence intensity of each well. The plate reader recorded fluorescence intensity at 1 second intervals for 8 min and provided the data for analysis in an Excel format. EC50 values were calculated using Prism (GraphPad) software.

T1 sequence (O14842 whole entry): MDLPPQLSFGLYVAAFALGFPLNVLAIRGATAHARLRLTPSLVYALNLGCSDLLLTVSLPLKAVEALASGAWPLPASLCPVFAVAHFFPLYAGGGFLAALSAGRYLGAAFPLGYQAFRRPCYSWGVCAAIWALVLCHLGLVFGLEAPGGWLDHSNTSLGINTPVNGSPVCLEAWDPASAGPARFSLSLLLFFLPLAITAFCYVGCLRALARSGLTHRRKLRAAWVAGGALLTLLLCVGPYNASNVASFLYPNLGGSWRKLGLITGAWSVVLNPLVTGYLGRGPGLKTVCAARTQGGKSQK

pEC50	SMILES
5.90	COc1cc(-c2onc(COc3cccc([C@@H](CC(=O)O)C4CC4)c3)c2CC(C)C)c(F)cn1 [Cpd 12, (3S)-3-cyclopropyl-3-[3-[[5-(5-fluoro-2-methoxy-4-pyridyl)-4-isobutyl-isoxazol-3-yl]methoxy]phenyl]propanoic acid]
7.19 and 7.26	COc1ccc(F)c(-c2onc(COc3cccc([C@@H](CC(=O)O)C4CC4)c3)c2C2CC2)c1 [Cpd 37, (3S)-3-cyclopropyl-3-[3-[[4-cyclopropyl-5-(2-fluoro-5-methoxy-phenyl)isoxazol-3-yl]methoxy]phenyl]propanoic acid]
7.28 and 7.38	COc1cc(-c2scc(COc3cccc([C@@H](CC(=O)O)C4CC4)c3)c2C2=CCCC2(C)C)c(F)cn1 [Cpd 27, (3S)-3-cyclopropyl-3-[3-[[4-(5,5-dimethylcyclopenten-1-yl)-5-(5-fluoro-2-methoxy-4-pyridyl)-3-thienyl]methoxy]phenyl]propanoic acid]
8.30	COc1ccc(F)c(-c2onc(COc3cccc([C@@H](CC(=O)O)C4CC4)c3)c2OC2CC(C)(C)CC(C)(C)C2)c1 [Cpd 3, (3S)-3-cyclopropyl-3-[3-[[5-(2-fluoro-5-methoxy-phenyl)-4-(3,3,5,5-tetramethylcyclohexoxy)isoxazol-3-yl]methoxy]phenyl]propanoic acid]
7.72 and 7.82	COc1ccc(F)c(-c2onc(COc3cccc([C@@H](CC(=O)O)C4CC4)c3)c2OC(C)C)c1 [Cpd 42, (3S)-3-cyclopropyl-3-[3-[[5-(2-fluoro-5-methoxy-phenyl)-4-isopropoxy-isoxazol-3-yl]methoxy]phenyl]propanoic acid]
7.62 and 7.68	COc1cc(-c2onc(COc3cccc([C@@H](CC(=O)O)C4CC4)c3)c2OC2CCCCC2)c(F)cn1 [Cpd 48, (3S)-3-[3-[[4-(cyclohexoxy)-5-(5-fluoro-2-methoxy-4-pyridyl)isoxazol-3-yl]methoxy]phenyl]-3-cyclopropyl-propanoic acid]
7.85 and 7.92	COc1ccc(F)c(-c2onc(COc3cccc([C@@H](CC(=O)O)C4CC4)c3)c2OCC2CC2)c1 [Cpd 41, (3S)-3-cyclopropyl-3-[3-[[4-(cyclopropylmethoxy)-5-(2-fluoro-5-methoxy-phenyl)isoxazol-3-yl]methoxy]phenyl]propanoic acid]
6.96 and 7.09	CCOc1c(COc2cccc([C@@H](CC(=O)O)C3CC3)c2)noc1-c1cc(OC)ccc1F [Cpd 50, (3S)-3-cyclopropyl-3-[3-[[4-ethoxy-5-(2-fluoro-5-methoxy-phenyl)isoxazol-3-yl]methoxy]phenyl]propanoic acid]

Second part, the compound before the results:

SMILES	pEC50
CC1(C)CCC=C1c1c(COc2cccc([C@@H](CC(=O)O)C3CC3)c2)csc1-c1ccccc1 [Cpd 20, (3S)-3-cyclopropyl-3-[3-[[4-(5,5-dimethylcyclopenten-1-yl)-5-phenyl-3-thienyl]methoxy]phenyl]propanoic acid]	7.10 and 7.15
COc1cc(-c2onc(COc3cccc([C@@H](CC(=O)O)C4CC4)c3)c2OCC(C)C)c(F)cn1 [Cpd 47, (3S)-3-cyclopropyl-3-[3-[[5-(5-fluoro-2-methoxy-4-pyridyl)-4-isobutoxy-isoxazol-3-yl]methoxy]phenyl]propanoic acid]	7.70 and 7.80
CC1(C)CCC=C1c1c(COc2cccc([C@@H](CC(=O)O)C3CC3)c2)csc1-c1ccsc1 [Cpd 16, (3S)-3-cyclopropyl-3-[3-[[4-(5,5-dimethylcyclopenten-1-yl)-5-(3-thienyl)-3-thienyl]methoxy]phenyl]propanoic acid]	7.06 and 7.19
COc1ccc(F)c(-c2onc(COc3cccc([C@@H](CC(=O)O)C4CC4)c3)c2OCC2C(C)(C)C2(C)C)c1 [Cpd 11, (3S)-3-cyclopropyl-3-[3-[[5-(2-fluoro-5-methoxy-phenyl)-4-[(2,2,3,3-tetramethylcyclopropyl)methoxy]isoxazol-3-yl]methoxy]phenyl]propanoic acid]	7.24
CC1(C)CCC=C1c1c(COc2cccc([C@@H](CC(=O)O)C3CC3)c2)csc1-c1cccc2[nH]ccc12 [Cpd 24, (3S)-3-cyclopropyl-3-[3-[[4-(5,5-dimethylcyclopenten-1-yl)-5-(1H-indol-4-yl)-3-thienyl]methoxy]phenyl]propanoic acid]	7.17 and 7.18
COc1ccc(F)c(-c2sc(Cl)c(COc3cccc([C@@H](CC(=O)O)C4CC4)c3)c2C(C)C(F)(F)F)c1 (stereo partly drawn) [Cpd 29, (3S)-3-[3-[[2-chloro-5-(2-fluoro-5-methoxy-phenyl)-4-(2,2,2-trifluoro-1-methyl-ethyl)-3-thienyl]methoxy]phenyl]-3-cyclopropyl-propanoic acid]	6.49 and 6.68
COc1ccccc1-c1scc(COc2cccc([C@@H](CC(=O)O)C3CC3)c2)c1C1=CCCC1(C)C [Cpd 22, (3S)-3-cyclopropyl-3-[3-[[4-(5,5-dimethylcyclopenten-1-yl)-5-(2-methoxyphenyl)-3-thienyl]methoxy]phenyl]propanoic acid]	7.33 and 7.39
COc1ccc(F)c(-c2onc(COc3cccc([C@@H](CC(=O)O)C4CC4)c3)c2-c2ccc(C)s2)c1 [Cpd 32, (3S)-3-cyclopropyl-3-[3-[[5-(2-fluoro-5-methoxy-phenyl)-4-(5-methyl-2-thienyl)isoxazol-3-yl]methoxy]phenyl]propanoic acid]	7.51 and 7.57
COc1ccc(F)c(-c2onc(COc3cccc([C@@H](CC(=O)O)C4CC4)c3)c2OC2CCCC2)c1 [Cpd 40, (3S)-3-[3-[[4-(cyclopentoxy)-5-(2-fluoro-5-methoxy-phenyl)isoxazol-3-yl]methoxy]phenyl]-3-cyclopropyl-propanoic acid]	8.10 and 8.15
COc1ccc(F)c(-c2onc(COc3cccc([C@@H](CC(=O)O)C4CC4)c3)c2CC(C)C)c1 [Cpd 35, (3S)-3-cyclopropyl-3-[3-[[5-(2-fluoro-5-methoxy-phenyl)-4-isobutyl-isoxazol-3-yl]methoxy]phenyl]propanoic acid]	8.10 and 8.22
CC1(C)CCC=C1c1c(COc2cccc([C@@H](CC(=O)O)C3CC3)c2)csc1-c1cccc2occc12 [Cpd 25, (3S)-3-[3-[[5-(benzofuran-4-yl)-4-(5,5-dimethylcyclopenten-1-yl)-3-thienyl]methoxy]phenyl]-3-cyclopropyl-propanoic acid]	7.00 and 7.17
COc1ccc(F)c(-c2onc(COc3cccc([C@@H](CC(=O)O)C4CC4)c3)c2-c2ccccc2)c1 [Cpd 34, (3S)-3-cyclopropyl-3-[3-[[5-(2-fluoro-5-methoxy-phenyl)-4-phenyl-isoxazol-3-yl]methoxy]phenyl]propanoic acid]	6.77 and 6.85
CC1(C)CCC=C1c1c(COc2cccc([C@@H](CC(=O)O)C3CC3)c2)csc1-c1ccccc1F [Cpd 21, (3S)-3-cyclopropyl-3-[3-[[4-(5,5-dimethylcyclopenten-1-yl)-5-(2-fluorophenyl)-3-thienyl]methoxy]phenyl]propanoic acid]	6.96 and 7.18
COc1ccc(F)c(-c2onc(COc3cccc([C@@H](CC(=O)O)C4CC4)c3)c2OC2CCC2)c1 [Cpd 43, (3S)-3-[3-[[4-(cyclobutoxy)-5-(2-fluoro-5-methoxy-phenyl)isoxazol-3-yl]methoxy]phenyl]-3-cyclopropyl-propanoic acid]	7.96 and 8.05
COc1ccc(F)c(-c2onc(COc3cccc([C@@H](CC(=O)O)C4CC4)c3)c2OCC(C)C)c1 [Cpd 39, (3S)-3-cyclopropyl-3-[3-[[5-(2-fluoro-5-methoxy-phenyl)-4-isobutoxy-isoxazol-3-yl]methoxy]phenyl]propanoic acid]	8.30 and 8.40
